Here are results for 1 substance from article PMC6164072, “Lysoquinone-TH1, a New Polyphenolic Tridecaketide Produced by Expressing the Lysolipin Minimal PKS II in Streptomyces albus” (Antibiotics, 2018).

In this experiment the target is T1, PDE-4B2 (Homo sapiens, UniProt Q07343).
T1 construct: gene PDE4B; human recombinant PDE-4B2 (BPS Bioscience no. 60042)
Put plainly: PDELight HTS cAMP phosphodiesterase luminescence assay. Type of experiment: biochemical.

T1 sequence (Q07343 1-564 isoform Q07343-2): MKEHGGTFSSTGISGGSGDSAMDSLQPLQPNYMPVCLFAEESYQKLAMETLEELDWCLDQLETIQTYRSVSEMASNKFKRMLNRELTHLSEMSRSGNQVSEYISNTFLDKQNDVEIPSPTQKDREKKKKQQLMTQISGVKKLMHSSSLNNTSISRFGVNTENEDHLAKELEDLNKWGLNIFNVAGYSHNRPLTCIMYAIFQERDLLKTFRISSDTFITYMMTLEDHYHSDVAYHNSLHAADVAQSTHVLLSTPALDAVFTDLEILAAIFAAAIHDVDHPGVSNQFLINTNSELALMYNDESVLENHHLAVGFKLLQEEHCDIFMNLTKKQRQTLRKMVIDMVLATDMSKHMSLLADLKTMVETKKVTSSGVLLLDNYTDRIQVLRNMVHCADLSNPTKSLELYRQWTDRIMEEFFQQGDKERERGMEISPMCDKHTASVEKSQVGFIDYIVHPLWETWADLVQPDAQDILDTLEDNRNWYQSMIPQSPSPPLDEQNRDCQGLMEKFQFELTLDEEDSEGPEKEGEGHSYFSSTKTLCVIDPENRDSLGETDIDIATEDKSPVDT

The substance lysoquinone-TH1 [compound 7] came in with an IC50 of 10 to 20 µM.

What is called IC50 is the concentration that inhibits the measured activity by half. The low end stands for greater potency in that assay, the high end for weaker potency in that assay.
